{"source": "ChEMBL document CHEMBL3045172", "about": "“Assessment of resistance risk in Spodoptera exigua (Hübner) (Lepidoptera: Noctuidae) to chlorantraniliprole” (2011)", "format_in_all_cases": "functional", "key": {"[1]": {"tested_on": "Spodoptera exigua", "assay": "Resistance factor, LC50 for Spodoptera exigua F11 neonate larvae to LC50 for Spodoptera exigua SS neonate larvae"}, "[2]": {"tested_on": "Spodoptera exigua", "assay": "Resistance factor, LC50 for Spodoptera exigua F22 neonate larvae to LC50 for Spodoptera exigua F0 neonate larvae"}, "[3]": {"tested_on": "Spodoptera exigua", "assay": "Resistance factor, LC50 for Spodoptera exigua F0 neonate larvae to LC50 for Spodoptera exigua SS neonate larvae"}, "[4]": {"tested_on": "Spodoptera exigua", "assay": "Insecticidal activity against Spodoptera exigua F0 neonate larvae assessed as mortality at 27 +/- 1 degC, 60 to 70% RH measured after 72 hr", "conditions": "F0, 72 h"}, "[5]": {"tested_on": "Spodoptera exigua", "assay": "Insecticidal activity against susceptible strain Spodoptera exigua SS neonate larvae assessed as mortality at 27 +/- 1 degC, 60 to 70% RH measured after 72 hr"}, "[6]": {"tested_on": "Spodoptera exigua", "assay": "Insecticidal activity against Spodoptera exigua F22 neonate larvae assessed as mortality at 27 +/- 1 degC, 60 to 70% RH measured after 72 hr", "conditions": "F22, 72 h"}, "[7]": {"tested_on": "Spodoptera exigua", "assay": "Resistance factor, LC50 for Spodoptera exigua F11 neonate larvae to LC50 for Spodoptera exigua F0 neonate larvae"}, "[8]": {"tested_on": "Spodoptera exigua", "assay": "Resistance factor, LC50 for Spodoptera exigua F22 neonate larvae to LC50 for Spodoptera exigua SS neonate larvae"}, "[9]": {"tested_on": "Spodoptera exigua", "assay": "Insecticidal activity against Spodoptera exigua F11 neonate larvae assessed as mortality at 27 +/- 1 degC, 60 to 70% RH measured after 72 hr", "conditions": "F11, 72 h"}}, "data": [{"smiles": "CNC(=O)c1cc(Cl)cc(C)c1NC(=O)c1cc(Br)nn1-c1ncccc1Cl", "note": "[CHLORANTRANILIPROLE]", "values": [{"measurement": "RatioLC50", "setting": "[1]", "value": 56.9}, {"measurement": "RatioLC50", "setting": "[2]", "value": 12}, {"measurement": "RatioLC50", "setting": "[3]", "value": 11.4}, {"measurement": "LC50", "setting": "[4]", "value": 0.157, "unit": "µg/mL"}, {"measurement": "LC50", "setting": "[5]", "value": 0.0137, "unit": "µg/mL"}, {"measurement": "LC50", "setting": "[6]", "value": 1.88, "unit": "µg/mL"}, {"measurement": "RatioLC50", "setting": "[7]", "value": 5}, {"measurement": "RatioLC50", "setting": "[8]", "value": 137.4}, {"measurement": "LC50", "setting": "[9]", "value": 0.78, "unit": "µg/mL"}]}]}
